From paper PMC7717600, “Novel [(N-alkyl-3-indolylmethylene)hydrazono]oxindoles arrest cell cycle and induce cell apoptosis by inhibiting CDK2 and Bcl-2: synthesis, biological evaluation and in silico studies” (Journal of Enzyme Inhibition and Medicinal Chemistry, 2020)

Tested on: NCI-H23
Test: cells
Details: Homo sapiens

Q: What does the source list for `CCCn1cc(C=NN=C2C(=O)Nc3ccc(C)cc32)c2ccccc21` [Compound 8a]?
A: GI50 (NCI-H23): 3.13 µM; CC50 (NCI-H23, read-out: LC50): > 100 µM
